Our source for the chromatographic logP and pest or weed control values is patent US8324390B2, “Tetrazole-substituted anthranilamides as pesticides” (Bayer CropScience AG, priority 2008, dated 2012).

Each structure is given as a SMILES string. Where two headings read alike, the source gives them in different places. A value given as a limit tells only on which side of the number the result lay.

Series [1] in a line: log P determination by HPLC (EEC Directive 79/831 Annex V.A8). In kind it is physicochemical. As for the experimental part: The measurements were carried out using an Agilent 1100 LC system with a 50*4.6 Zorbax Eclipse C18 1.8 μm column (oven temperature 55° C., flow rate 2.0 ml/min).
The following mobile phases were used:
Mobile phase A: acetonitrile+1000 μl of formic acid/l
Mobile phase B: Millipore water+900 μl of formic acid/l

For series [2], the system named is caterpillars of the armyworm (Spodoptera frugiperda). Nature of the series: Spodoptera frugiperda test (SPODFR spray treatment). In kind it is in vivo. As to conditions: Spodoptera frugiperda, foliar, read-out: effect in % (caterpillars killed). An excerpt:
Solvent: 78.0 parts by weight of acetone

Series [3] relates to larvae of the mustard beetle (Phaedon cochleariae). In words: Phaedon test (PHAECO spray treatment). As to conditions: Phaedon cochleariae, in Brassica rapa, foliar, read-out: effect in % (beetle larvae killed).
Setting [4] is: reversed-phase HPLC, Zorbax Eclipse C18 column, by HPLC according to EEC Directive 79/831 Annex V.A8, read-out: log P.
Setting [5] is: application rate 100 g/ha, maize leaf discs.
The mark [6] stands for this setting: reversed-phase HPLC, Zorbax Eclipse C18 column, determined by HPLC according to EEC Directive 79/831 Annex V.A8, read-out: log P.

Consider `Cc1cc(C#N)cc(C(=O)NC(C)C)c1NC(=O)c1cc(Cn2nnc(C(F)(C(F)(F)F)C(F)(F)F)n2)nn1-c1ncccc1Cl` [Example 370], for which the chromatographic logP in series [1] (setting [4]) amounted to 3.79. The pest or weed control at 100 g/ha in series [2] (setting [5]) and in series [3] was not below 80% each time.
Regarding `Cc1cc(C#N)cc(C(=O)NC(C)(C)C)c1NC(=O)c1cc(Cn2nnc(C(F)(C(F)(F)F)C(F)(F)F)n2)nn1-c1ncccc1Cl` [Example 371], the chromatographic logP in series [1] (setting [4]) was 4.1. Moreover, the pest or weed control at 100 g/ha in series [2] (setting [5]) and in series [3] was not below 80% in each case.
Consider `Cc1cc(C#N)cc(C(=O)NCC2CC2)c1NC(=O)c1cc(Cn2nnc(C(F)(C(F)(F)F)C(F)(F)F)n2)nn1-c1ncccc1Cl` [Example 373], for which the chromatographic logP in series [1] (setting [4]) was 3.84. Also, the pest or weed control at 100 g/ha in series [2] (setting [5]) and in series [3] was not below 80% each time.
With `Cc1cc(C#N)cc(C(=O)NCC#N)c1NC(=O)c1cc(Cn2nnc(C(F)(C(F)(F)F)C(F)(F)F)n2)nn1-c1ncccc1Cl` [Example 374], the chromatographic logP in series [1] (setting [4]) was found to be 3.29. In addition, the pest or weed control at 100 g/ha in series [2] (setting [5]) and in series [3] was not below 80% throughout.
As to `Cc1cc(C#N)cc(C(=O)NCC(F)F)c1NC(=O)c1cc(Cn2nnc(C(F)(C(F)(F)F)C(F)(F)F)n2)nn1-c1ncccc1Cl` [Example 375], in series [1] (setting [4]), the chromatographic logP came out at 3.57. Further, the pest or weed control at 100 g/ha in series [2] (setting [5]) and in series [3] was not below 80% throughout.
As for `Cc1cc(I)cc(C(=O)NC(C)C2CC2)c1NC(=O)c1cc(Cn2nnc(C(F)(C(F)(F)F)C(F)(F)F)n2)nn1-c1ncccc1Cl` (stereo not drawn) [Example 378], in series [1] (setting [4]), the chromatographic logP turned out to be 4.74. Moreover, the pest or weed control at 100 g/ha in series [2] (setting [5]) and in series [3] was not below 80% each time.
In the case of `Cc1cc(I)cc(C(=O)NC2CC2)c1NC(=O)c1cc(Cn2nnc(C(F)(C(F)(F)F)C(F)(F)F)n2)nn1-c1ncccc1Cl` [Example 379], the chromatographic logP in series [1] (log P) turned out to be 4.18. In addition, the pest or weed control at 100 g/ha in series [2] (in Zea mays) and in series [3] was not below 80% throughout.
For the molecule `CCNC(=O)c1cc(I)cc(C)c1NC(=O)c1cc(Cn2nnc(C(F)(C(F)(F)F)C(F)(F)F)n2)nn1-c1ncccc1Cl` [Example 380], the chromatographic logP in series [1] (log P) worked out at 4.2. In addition, the pest or weed control at 100 g/ha in series [2] (in Zea mays) and in series [3] was not below 80% throughout.
Consider `Cc1cc(I)cc(C(=O)NC(C)C)c1NC(=O)c1cc(Cn2nnc(C(F)(C(F)(F)F)C(F)(F)F)n2)nn1-c1ncccc1Cl` [Example 381], for which the chromatographic logP in series [1] (log P) amounted to 4.44. Further, the pest or weed control at 100 g/ha in series [2] (in Zea mays) and in series [3] was not below 80% each time.
The molecule `Cc1cc(I)cc(C(N)=O)c1NC(=O)c1cc(Cn2nnc(C(F)(C(F)(F)F)C(F)(F)F)n2)nn1-c1ncccc1Cl` [Example 382] registered a chromatographic logP in series [1] (log P) of 3.67. Moreover, the pest or weed control at 100 g/ha in series [2] (in Zea mays) and in series [3] was not below 80% throughout.
Consider `Cc1cc(I)cc(C(=O)NCC2CC2)c1NC(=O)c1cc(Cn2nnc(C(F)(C(F)(F)F)C(F)(F)F)n2)nn1-c1ncccc1Cl` [Example 383], for which the chromatographic logP in series [1] (setting [4]) is 4.51. Besides, the pest or weed control at 100 g/ha in series [2] (setting [5]) and in series [3] was not below 80% each time.
In series [1] (log P), `Cc1cc(I)cc(C(=O)NCC#N)c1NC(=O)c1cc(Cn2nnc(C(F)(C(F)(F)F)C(F)(F)F)n2)nn1-c1ncccc1Cl` [Example 384] showed a chromatographic logP of 3.82. Also, the pest or weed control at 100 g/ha in series [2] (in Zea mays) and in series [3] was not below 80% each time.
In the case of `CNC(=O)c1cc(Cl)cc(Cl)c1NC(=O)c1cc(Cn2nnc(C(F)(C(F)(F)F)C(F)(F)F)n2)nn1-c1ncccc1Cl` [Example 386], in series [1] (log P), the chromatographic logP came to 3.65. Also, the pest or weed control at 100 g/ha in series [2] (in Zea mays) and in series [3] was not below 80% each time.
Regarding `CC(NC(=O)c1cc(Cl)cc(Cl)c1NC(=O)c1cc(Cn2nnc(C(F)(C(F)(F)F)C(F)(F)F)n2)nn1-c1ncccc1Cl)C1CC1` (stereo not drawn) [Example 387], the chromatographic logP in series [1] (setting [4]) came out at 4.42. The pest or weed control at 100 g/ha in series [2] (setting [5]) and in series [3] was not below 80% throughout.
The molecule `CCNC(=O)c1cc(Cl)cc(Cl)c1NC(=O)c1cc(Cn2nnc(C(F)(C(F)(F)F)C(F)(F)F)n2)nn1-c1ncccc1Cl` [Example 388] had a chromatographic logP in series [1] (log P) of 3.89. Besides, the pest or weed control at 100 g/ha in series [2] (in Zea mays) and in series [3] was not below 80% throughout.
In series [1] (log P), `CC(C)NC(=O)c1cc(Cl)cc(Cl)c1NC(=O)c1cc(Cn2nnc(C(F)(C(F)(F)F)C(F)(F)F)n2)nn1-c1ncccc1Cl` [Example 389] yielded a chromatographic logP of 4.12. Further, the pest or weed control at 100 g/ha in series [2] (in Zea mays) and in series [3] was not below 80% in each case.
Regarding `CC(C)(C)NC(=O)c1cc(Cl)cc(Cl)c1NC(=O)c1cc(Cn2nnc(C(F)(C(F)(F)F)C(F)(F)F)n2)nn1-c1ncccc1Cl` [Example 390], in series [1] (setting [4]), the chromatographic logP came to 4.47. The pest or weed control at 100 g/ha in series [2] (setting [5]) and in series [3] was not below 80% each time.
Regarding `O=C(NCC1CC1)c1cc(Cl)cc(Cl)c1NC(=O)c1cc(Cn2nnc(C(F)(C(F)(F)F)C(F)(F)F)n2)nn1-c1ncccc1Cl` [Example 392], the chromatographic logP in series [1] (setting [4]) turned out to be 4.17. Moreover, the pest or weed control at 100 g/ha in series [2] (setting [5]) and in series [3] was not below 80% in each case.
In the case of `N#CCNC(=O)c1cc(Cl)cc(Cl)c1NC(=O)c1cc(Cn2nnc(C(F)(C(F)(F)F)C(F)(F)F)n2)nn1-c1ncccc1Cl` [Example 393], the chromatographic logP in series [1] (log P) worked out at 3.59. For the same molecule, the pest or weed control at 100 g/ha in series [2] (in Zea mays) and in series [3] was not below 80% throughout.
For `CSC[C@H](C)NC(=O)c1cc(Cl)cc(Cl)c1NC(=O)c1cc(Cn2nnc(C(F)(C(F)(F)F)C(F)(F)F)n2)nn1-c1ncccc1Cl` [Example 394], the chromatographic logP in series [1] (setting [4]) worked out at 4.3. For the same molecule, the pest or weed control at 100 g/ha in series [2] (setting [5]) and in series [3] was not below 80% throughout.
On to `COCCNC(=O)c1cc(C#N)cc(C)c1NC(=O)c1cc(Cn2nnc(C(F)(C(F)(F)F)C(F)(F)F)n2)nn1-c1ncccc1Cl` [Example 395], for which the chromatographic logP in series [1] (setting [4]) was determined as 3.48. Moreover, the pest or weed control at 100 g/ha in series [2] (setting [5]) and in series [3] was not below 80% throughout.
Turning to `O=C(NCC(F)F)c1cc(Cl)cc(Cl)c1NC(=O)c1cc(Cn2nnc(C(F)(C(F)(F)F)C(F)(F)F)n2)nn1-c1ncccc1Cl` [Example 396], the chromatographic logP in series [1] (setting [4]) was determined as 3.89. The pest or weed control at 100 g/ha in series [2] (setting [5]) and in series [3] was not below 80% in each case.
`Cc1cc(C#N)cc(C(=O)NC2CCCC2)c1NC(=O)c1cc(Cn2nnc(C(F)(F)F)n2)nn1-c1ncccc1Cl` [Example 399]: the chromatographic logP in series [1] (log P) amounted to 3.37. Further, the pest or weed control at 100 g/ha in series [2] (in Zea mays) and in series [3] was not below 80% in each case.
`Cc1cc(C#N)cc(C(=O)NC2CCCCC2)c1NC(=O)c1cc(Cn2nnc(C(F)(F)F)n2)nn1-c1ncccc1Cl` [Example 400] yielded a chromatographic logP in series [1] (log P) of 3.63. The pest or weed control at 100 g/ha in series [2] (in Zea mays) and in series [3] was not below 80% throughout.
As to `Cc1cc(C#N)cc(C(=O)NC2CCCC2)c1NC(=O)c1cc(Cn2nnc(C(F)(F)F)n2)nn1-c1ccccc1Cl` [Example 401], in series [1] (setting [6]), the chromatographic logP was 3.84. The pest or weed control at 100 g/ha in series [2] (setting [5]) and in series [3] was not below 80% throughout.
As for `CNC(=O)c1cc(Cl)cc(C)c1NC(=O)c1cc(Cn2nnc(C(F)(F)C(F)(F)F)n2)nn1-c1ccccc1Cl` [Example 402], in series [1] (setting [6]), the chromatographic logP came to 3.78. Moreover, the pest or weed control at 100 g/ha in series [2] (setting [5]) and in series [3] was not below 80% in each case.
Regarding `Cc1cc(Cl)cc(C(=O)NC(C)(C)C)c1NC(=O)c1cc(Cn2nnc(C(F)(F)F)n2)nn1-c1ccccc1` [Example 403], in series [1] (setting [6]), the chromatographic logP came to 4.14. Moreover, the pest or weed control at 100 g/ha in series [2] (setting [5]) and in series [3] was not below 80% each time.
Regarding `CNC(=O)c1cc(Cl)cc(C)c1NC(=O)c1cc(Cn2nnc(C(F)(F)F)n2)nn1-c1ccccc1` [Example 404], the chromatographic logP in series [1] (setting [6]) was 3.19. Also, the pest or weed control at 100 g/ha in series [2] (setting [5]) and in series [3] was not below 80% in each case.
Consider `CCNC(=O)c1cc(I)cc(C)c1NC(=O)c1cc(Cn2nnc(C(F)(F)F)n2)nn1-c1ncccc1Br` [Example 408], for which the chromatographic logP in series [1] (setting [6]) turned out to be 3.51. The pest or weed control at 100 g/ha in series [2] (setting [5]) and in series [3] was not below 80% throughout.
`Cc1cc(I)cc(C(=O)NC(C)C)c1NC(=O)c1cc(Cn2nnc(C(F)(F)F)n2)nn1-c1ncccc1Br` [Example 413]: the chromatographic logP in series [1] (setting [6]) worked out at 3.77. In addition, the pest or weed control at 100 g/ha in series [2] (setting [5]) and in series [3] was not below 80% throughout.
Take `CNC(=O)c1cc(C#N)cc(C)c1NC(=O)c1cc(Cn2nnc(C(F)(F)F)n2)nn1-c1ccccc1` [Example 431]: in series [1] (setting [6]), the chromatographic logP was found to be 2.81. Besides, the pest or weed control at 100 g/ha in series [2] (setting [5]) and in series [3] was not below 80% throughout.
With `Cc1cc(C#N)cc(C(=O)NC(C)(C)C)c1NC(=O)c1cc(C(C)n2nnc(C(F)(F)F)n2)nn1-c1ncccc1Cl` (stereo not drawn) [Example 436], the chromatographic logP in series [1] (log P) amounted to 3.7. The pest or weed control at 100 g/ha in series [2] (in Zea mays) and in series [3] was not below 80% throughout.
Turning to `CCNC(=O)c1cc(Br)cc(C)c1NC(=O)c1cc(Cn2nnnc2C(F)(F)F)nn1-c1ncccc1C(F)(F)F` [Example 453], the chromatographic logP in series [1] (setting [6]) worked out at 3.17. For the same molecule, the pest or weed control at 100 g/ha in series [2] (setting [5]) and in series [3] was not below 80% in each case.
